Key:
HeLa cells = assay: Time-lapse live imaging of mitotic progression and cell fate in HeLa cells (H2B-mCherry, EGFP-α-tubulin); format: cell-based, human
Description: To determine whether these 34 compounds also induce mitotic abnormalities in human cells, a second screen of these compounds was conducted using HeLa cells. We used time-lapse microscopy to monitor mitotic progression in HeLa cells expressing mCherry-tagged histone H2B to mark chromatin, and EGFP-tagged α-tubulin to monitor microtubules over a 24 h time period in the presence of 2 µM of each of the 34 compounds. The duration of mitosis was determined by live-cell imaging, defined as the period from prophase to cytokinesis based on chromatin and microtubule morphologies (figure 2a). The control DMSO-treated cells progressed through mitosis with a mean mitotic duration of 77 ± 6 min. Among the 34 compounds we tested, nine caused a significant increase in mitotic duration in human cells (figure 2a), ranging from 122 ± 42 min (F15) to 720 ± 53 min (C16). […] As described in the Discussion, we have not carried out a detailed analysis for B8 in this study. To determine whether these cell deaths were caused by apoptosis, caspase activity was assayed for 24 h using time-lapse microscopy in the presence of the 12 compounds. Caspase 3 and Caspase 7 activities were observed 12–24 h after the addition of the compounds (electronic supplementary material, figure S1A). There were also other indications of apoptosis including the morphological chances reminiscing of membrane blebbing, chromatin condensation and cell explosion (electronic supplementary material, figure S1B). Caspase-mediated apoptosis induction is similar to the effects of mitotic arrest caused by anti-microtubule drugs in HeLa cells. […] We conclude that these 12 compounds cause mitotic arrest followed by cell death through apoptotic activation.
Figure 2. Effect of compounds on mitotic progression in HeLa cell (a). Duration of mitosis was analysed by live imaging of HeLa cells stably expressing H2B-mcherry (red) and EGFP-a tubulin (green) treated in the presence of 0.5 µM (K1, L1, J1) or 2 µM (C16, E2, O12, M2, I15, J3, I2, A15, F15) compound for 24 h and the time in mitosis was measured in 200 cells. DMSO-treated cells are shown, which served as the vehicle control. Show mean as ‘+’. (b). The Cell fate after mitosis (normal division, abnormal division or cell death) was quantitatively assessed after the mitotic arrest observed in (a). (c) Dose-dependent change of phenotypes after mitotic arrest with K1, L1 and J1.
For live-cell imaging experiments, 200 000 cells were seeded onto glass-bottom culture dishes (MatTek P35GC-1.5-14-C). Cells were grown overnight before the addition of the compound, and the culture media was replaced with fresh media lacking phenol red to limit phototoxicity before imaging.
Live-cell imaging was performed in a LCV110 U VivaView FL incubator microscope (Olympus) equipped with an X-Cite-exacte illumination source (Excelitas Technologies) and Orca-R2 CCD camera (Hamamatsu Photonics). For screening, images were acquired with a 20 × objective every 15 min for 24–48 h in the differential interference contrast (DIC), m-cherry and GFP channels. For assessment of apoptosis, the cells were monitored every 15 min for 24 h. Individual cells were manually analysed using the CellCognition browser.

[1] = test system: fission yeast mutant strains (nda2-KM52, nda3-KM311, cdc25-22, cut14-208, act1-48); assay: Drug sensitivity of fission yeast mutants spotted on YE medium; format: cell-based, Schizosaccharomyces pombe; details: figure S3
Description: The Schizosaccharomyces pombe SAK933 strain (h90 ade6 leu1 ura4-D18 GFP-atb2≪kanr sid4-mcherry≪hygr caf5::bsdR pap1Δ pmd1Δ mfs1Δ bfr1Δ dnf2 Δ erg5::ura4+) [57] used for the phenotypic screening in this study was grown at 30°C in yeast extract (YE) medium containing adenine, leucine, uridine and histidine. A haploid wild-type strain 972 h^- and its derivative strains were used in the electronic supplementary material, figure S3: nda2-km52, nda3-km311 [58], cdc25-22 [59, 60], cdc14-208 [61] and act1-48 [62] spotted onto YE medium containing the same four supplements above and incubated for 3 days at 30°C.

MCF-10A = assay: Viability dose-response in non-cancer mammary cell line; format: cell-based, human
Description: (§1) The sensitivity of the inhibitors L1, J3, A15 and M2 were evaluated in three breast cancer cell lines, (BT549, CAL51 and MB-157) and a non-cancer cell line from the human mammary gland, MCF-10A (figure 8). Drug sensitivity was determined by culturing breast cancer cell lines (black lines) and the non-cancer cell line (red line) with a range of concentrations of each compound, and viability was measured after 4 days of treatment in triplicate.
(§2) Figure 8. Dose–response curves in three cancer cell lines (BT549, CAL51 and MB-157) are shown in black and non-cancer cell line; MCF-10A is shown in red. They were subjected to a dose–response matrix of the tubulin inhibitor, L1, A15, M2 and J3, respectively. Viability relative to the vehicle control was measured […] after treatment. Mean ± s.e.m. for n = 3 experiments is shown.
(§3) Cells were plated in 384-well plates at a density of 800 cells per well in 22.5 µl of media. After 24 h, 2.5 µl drug was diluted in media and was added to each well. Following 5 days of incubation, viability was assessed using CellTiter-Glo (Promega) according to the manufacture's protocol. Luminescence in each well was measured using a Synergy Neo2 plate reader (BioTek).

[2] = test system: BT549, CAL51 and MB-157 breast cancer cell lines; assay: Viability dose-response in breast cancer cell lines; format: cell-based; details: Homo sapiens, 96 h; range over three breast cancer cell lines; 4 days of treatment
Description: as §1, §2, §3

Compound: COc1cc(Br)cc2c1OC(c1ccc3c(c1)OCO3)C([N+](=O)[O-])=C2 (stereo not shown) [L1]
- cell fate (HeLa cells; 0.5 µM compound): arrested cells initially in mitosis, followed by cell death
- cell fate (HeLa cells; 2 µM compound): immediately induced cell death independent of the phase of the cell cycle
- phenotype after mitotic arrest (HeLa cells; 0.1 and 0.25 µM compound): abnormal multipolar, asymmetric cell divisions, generating 3–4 daughter cells
- drug sensitivity of cdc25-22, cut14-208 and act1-48 mutants [1]: No such drug hypersensitivity
- IC50 (MCF-10A; Homo sapiens, 96 h, MCF-10A, 4 days of treatment): 9.6 µM
- IC50 in MCF-10A relative to the three breast cancer cell lines (MCF-10A; ratio non-cancer / cancer lines): more than threefold higher
- IC50 [2]: 2.4 to 3.1 µM

Source: paper PMC8424300, “Identification of novel microtubule inhibitors effective in fission yeast and human cells and their effects on breast cancer cell lines” (Open Biology, 2021)
